Experiment: xn = mol fraction of the nth substance listed
Details: 101 kPa

NC(=O)CC[C@H](N)C(=O)O + CCCCCCCCCCCC[N+](C)(C)C.[Br-] + O
viscosity [mPa·s]
Details | 293.15 K | 298.15 K | 303.15 K | 308.15 K | 313.15 K
x1 = 0.0001801, x2 = 0.0001083 | 1.02 | 0.908 | 0.822 | 0.738 | 0.667
x1 = 0.0001801, x2 = 0.0001624 | 1.024 | 0.911 | 0.824 | 0.74 | 0.67
x1 = 0.0001801, x2 = 0.0002165 | 1.028 | 0.913 | 0.825 | 0.742 | 0.672
x1 = 0.0001801, x2 = 0.0002706 | 1.036 | 0.914 | 0.827 | 0.744 | 0.674
x1 = 0.0001801, x2 = 0.0003247 | 1.045 | 0.917 | 0.828 | 0.745 | 0.676
x1 = 0.0001801, x2 = 0.0003788 | 1.051 | 0.921 | 0.832 | 0.747 | 0.677
x1 = 0.0001801, x2 = 0.0004328 | 1.057 | 0.926 | 0.835 | 0.749 | 0.68
x1 = 0.0001801, x2 = 0.0004869 | 1.062 | 0.932 | 0.837 | 0.754 | 0.683
x1 = 0.0001801, x2 = 0.000541 | 1.067 | 0.937 | 0.841 | 0.757 | 0.687
x1 = 0.0001802, x2 = 5.413e-05 | 1.018 | 0.905 | 0.819 | 0.735 | 0.666
x1 = 0.0008997, x2 = 0.0005438 | 1.057 | 0.91 | 0.821 | 0.751 | 0.678
x1 = 0.0008998, x2 = 0.0003807 | 1.045 | 0.898 | 0.81 | 0.739 | 0.668
x1 = 0.0008998, x2 = 0.0004351 | 1.051 | 0.902 | 0.814 | 0.743 | 0.67
x1 = 0.0008998, x2 = 0.0004894 | 1.053 | 0.906 | 0.818 | 0.747 | 0.674
x1 = 0.0008999, x2 = 0.000272 | 1.041 | 0.893 | 0.805 | 0.734 | 0.664
x1 = 0.0008999, x2 = 0.0003263 | 1.043 | 0.896 | 0.807 | 0.736 | 0.666
x1 = 0.0009, x2 = 0.0001632 | 1.036 | 0.889 | 0.801 | 0.729 | 0.66
x1 = 0.0009, x2 = 0.0002176 | 1.039 | 0.891 | 0.803 | 0.732 | 0.662
x1 = 0.0009001, x2 = 5.44e-05 | 1.033 | 0.884 | 0.797 | 0.725 | 0.655
x1 = 0.0009001, x2 = 0.0001088 | 1.035 | 0.886 | 0.799 | 0.727 | 0.657
x1 = 0.001798, x2 = 0.0001642 | 1.015 | 0.873 | 0.788 | 0.725 | 0.642
x1 = 0.001798, x2 = 0.000219 | 1.02 | 0.875 | 0.79 | 0.726 | 0.643
x1 = 0.001798, x2 = 0.0002737 | 1.025 | 0.878 | 0.792 | 0.728 | 0.645
x1 = 0.001798, x2 = 0.0003284 | 1.031 | 0.88 | 0.793 | 0.73 | 0.647
x1 = 0.001798, x2 = 0.0003831 | 1.034 | 0.885 | 0.797 | 0.732 | 0.648
x1 = 0.001798, x2 = 0.0004378 | 1.037 | 0.888 | 0.803 | 0.733 | 0.65
x1 = 0.001798, x2 = 0.0004925 | 1.039 | 0.892 | 0.807 | 0.736 | 0.653
x1 = 0.001798, x2 = 0.0005472 | 1.042 | 0.896 | 0.813 | 0.738 | 0.655
x1 = 0.001799, x2 = 5.475e-05 | 1.004 | 0.867 | 0.784 | 0.721 | 0.634
x1 = 0.001799, x2 = 0.0001095 | 1.01 | 0.87 | 0.785 | 0.722 | 0.639

[Cl-].[Na+] + CCCCCCCCCCCC[N+](C)(C)C.[Br-] + O
298.15 K
Details | electrical conductivity [S/m]
x2 = 0, x1 = 0.0001802 | 0.1161
x2 = 0, x1 = 0.001799 | 0.8806

NCC(=O)O + CCCCCCCCCCCC[N+](C)(C)Cc1ccccc1.[Cl-] + O
electrical conductivity [S/m]
Details | 293.15 K | 298.15 K | 303.15 K | 308.15 K | 313.15 K
x1 = 0.0008876, x2 = 0 | 0.000384 | 0.000431 | 0.000492 | 0.000549 | 0.000613
x1 = 0.001759, x2 = 0 | 0.00074 | 0.000839 | 0.000945 | 0.00106 | 0.00118

CCCC[n+]1ccn(C)c1.N#C[S-] + CCCCCCO
Details | viscosity [mPa·s]
298.15 K, x2 = 0.1505 | 36.2
308.15 K, x2 = 0.1505 | 24.6
308.15 K, x2 = 0.453 | 13.1
308.15 K, x2 = 0.9102 | 4.42
318.15 K, x2 = 0.6307 | 6.91
318.15 K, x2 = 0.9102 | 3.41
328.15 K, x2 = 0.6962 | 4.59
328.15 K, x2 = 0.7583 | 3.92
328.15 K, x2 = 0.8512 | 3.17
338.15 K, x2 = 0.0424 | 12
338.15 K, x2 = 0.3093 | 8.15
338.15 K, x2 = 0.453 | 6.07
338.15 K, x2 = 0.5773 | 4.76
348.15 K, x2 = 0.0424 | 9.56

CCCN + CCCCCC[n+]1ccn(C)c1.F[B-](F)(F)F
298.15 K
Details | viscosity [mPa·s]
x1 = 0.1525 | 110
x1 = 0.5052 | 29.08
x1 = 0.9012 | 1.672

CCCC[n+]1ccn(C)c1.N#C[S-] + CCCCCO
Details | viscosity [mPa·s]
308.15 K, x2 = 0.0193 | 31.1
308.15 K, x2 = 0.1443 | 23.4
318.15 K, x2 = 0.5557 | 7.31
328.15 K, x2 = 0.7302 | 3.71
338.15 K, x2 = 0 | 12.7
338.15 K, x2 = 0.3843 | 6.75
338.15 K, x2 = 0.616 | 4.13
348.15 K, x2 = 0.2751 | 6.6
348.15 K, x2 = 0.3843 | 5.49
348.15 K, x2 = 0.7914 | 2.17
348.15 K, x2 = 0.9135 | 1.5

Source: the CheMixHub ionic liquid set
